Test [1] concerns the target T1, Gastrin/cholecystokinin type B receptor (Rattus norvegicus, UniProt P30553).
T1 sequence (P30553 whole entry): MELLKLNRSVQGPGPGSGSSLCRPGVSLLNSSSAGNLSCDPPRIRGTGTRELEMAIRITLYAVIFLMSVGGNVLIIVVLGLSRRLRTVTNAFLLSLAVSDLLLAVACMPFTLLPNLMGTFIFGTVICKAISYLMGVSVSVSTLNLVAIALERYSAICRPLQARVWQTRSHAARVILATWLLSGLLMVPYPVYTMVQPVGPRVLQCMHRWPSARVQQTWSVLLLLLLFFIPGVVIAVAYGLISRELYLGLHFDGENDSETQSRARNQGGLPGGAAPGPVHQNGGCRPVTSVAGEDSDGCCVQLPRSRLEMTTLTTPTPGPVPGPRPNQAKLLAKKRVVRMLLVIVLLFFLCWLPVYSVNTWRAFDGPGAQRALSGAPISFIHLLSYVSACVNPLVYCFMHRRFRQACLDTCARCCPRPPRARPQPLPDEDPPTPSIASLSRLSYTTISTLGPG
In words: Inhibition of [3H]- pCCK-8 binding to Cholecystokinin type B receptor of rat cerebral cortex membranes. The class given is cell membranes, Membrane.

The target of test [2] is T2, Cholecystokinin receptor type A (Rattus norvegicus, UniProt P30551).
T2 sequence (P30551 whole entry): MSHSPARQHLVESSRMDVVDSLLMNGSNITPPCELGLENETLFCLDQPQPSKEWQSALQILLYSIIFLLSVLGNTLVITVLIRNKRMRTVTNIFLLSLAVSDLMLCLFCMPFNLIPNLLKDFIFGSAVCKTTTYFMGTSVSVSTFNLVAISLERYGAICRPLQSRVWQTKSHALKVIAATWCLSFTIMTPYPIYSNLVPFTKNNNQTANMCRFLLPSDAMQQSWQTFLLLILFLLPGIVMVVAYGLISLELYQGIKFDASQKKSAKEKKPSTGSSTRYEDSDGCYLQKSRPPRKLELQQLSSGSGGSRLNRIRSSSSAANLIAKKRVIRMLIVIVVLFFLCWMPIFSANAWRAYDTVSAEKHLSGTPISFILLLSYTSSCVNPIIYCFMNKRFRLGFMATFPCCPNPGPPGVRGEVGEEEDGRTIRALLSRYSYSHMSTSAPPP
Description: Inhibition of [3H]pCCK-8 specific binding to Cholecystokinin type A receptor of rat pancreas.

The species named for a further test is Rattus norvegicus. Description: Compound was tested for inhibition of amylase release stimulated by CCK-8 (0.5 nM) in dispersed pancreatic acini.

The term Ki denotes the dissociation constant of the complex between target and ligand, obtained from inhibition or displacement. Lower therefore signals tighter binding. As for `CC(C)(C)OC(=O)N[C@@H](Cc1c[nH]c2ccccc12)C(=O)N[C@@H]1CCCN2C(=O)N(Cc3ccccc3)C(=O)C[C@@H]12` [IQM-95333], the Ki in test [1] was 2910 nM; in test [2] it was 2890 nM.

Take `CC(C)(C)OC(=O)N[C@H](Cc1c[nH]c2ccccc12)C(=O)N[C@H]1CCCN2C(=O)N(Cc3ccccc3)C(=O)C[C@@H]12`: the results for the Ki in test [1] and in test [2] were over 5000 nM and 298 nM, respectively.

For orientation: IC50 means the concentration needed to halve the response being measured. `CC(C)(C)OC(=O)N[C@@H](Cc1c[nH]c2ccccc12)C(=O)N[C@H]1CCCN2C(=O)N(Cc3ccccc3)C(=O)C[C@@H]12`: the Ki was over 5000 nM in test [1] and 0.62 nM in test [2]. In the test listed under Rattus norvegicus, the IC50 stood at 21.3 nM.

As to `CC(C)(C)OC(=O)N[C@@H](Cc1c[nH]c2ccccc12)C(=O)N[C@@H]1CCCN2C(=O)N(Cc3ccccc3)C(=O)C[C@H]12`, the Ki turned out to be 2730 nM in test [1] and 10.6 nM in test [2]. The molecule further registered a half-inhibitory concentration (IC50) in the test listed under Rattus norvegicus of 201 nM.

`COC(=O)[C@@]1(Cc2ccccc2)C[C@@H]2[C@@H](NC(=O)[C@H](Cc3c[nH]c4ccccc34)NC(=O)OC(C)(C)C)CCCN2C1=O` showed a Ki in test [1] of over 5000 nM.

Regarding `COC(=O)[C@]1(Cc2ccccc2)C[C@@H]2[C@@H](NC(=O)[C@@H](Cc3c[nH]c4ccccc34)NC(=O)OC(C)(C)C)CCCN2C1=O`, the Ki is 1560 nM in test [1] and over 5000 nM in test [2].

For the molecule `CC(C)(C)OC(=O)N[C@H](Cc1c[nH]c2ccccc12)C(=O)N[C@@H]1CCCN2C(=O)N(Cc3ccccc3)C(=O)C[C@H]12`, the Ki in test [1] is over 5000 nM.

As for `CN1C(=O)[C@H](NC(=O)c2cc3ccccc3[nH]2)N=C(c2ccccc2)c2ccccc21`, in the test filed under Rattus norvegicus, half-maximal inhibition (IC50) was put at 25.4 nM.

For `CC(C)(C)OC(=O)N[C@H](Cc1c[nH]c2ccccc12)C(=O)N[C@H]1CCCN2C(=O)N(Cc3ccccc3)C(=O)C[C@H]12`, the Ki in test [1] and in test [2] was over 5000 nM throughout.

Regarding `CC(C)(C)OC(=O)N[C@H](Cc1c[nH]c2ccccc12)C(=O)N[C@@H]1CCCN2C(=O)N(Cc3ccccc3)C(=O)C[C@@H]12`, the Ki in test [1] was 1890 nM; in test [2], over 5000 nM.

As for `CC(C)(C)OC(=O)N[C@@H](Cc1c[nH]c2ccccc12)C(=O)N[C@H]1CCCN2C(=O)N(Cc3ccccc3)C(=O)C[C@H]12`, the values for the Ki in test [1] and in test [2] were over 5000 nM and 572 nM, respectively.

(Values after ChEMBL document CHEMBL1130188, “Synthesis and stereochemical structure-activity relationships of 1,3-dioxoperhydropyrido[1,2-c]pyrimidine derivatives: potent and selective cholecystokinin-A receptor antagonists” (J Med Chem, 1997).)
